Read-outs that look alike come from different tables or passages of the source.
What was measured:
[1] = system: P. aeruginosa; type: cell-based
[2] = system: LPS-induced activation of the LAL enzyme (Limulus amoebocyte lysate); assay: Binding of peptides to lipopolysaccharide (LAL assay); type: biochemical; conditions: one EU of LPS, 37 °C, 30 minutes
Procedure: Figure 3 Ability of peptides to neutralize LPS and reduce inflammatory cytokines expression. (A) LPS binding activity of peptides. Peptides at different concentrations were incubated with one endotoxin unit (EU) of LPS at 37 °C for 30 minutes. […] The binding of peptides with LPS is expressed as percent change relative to the untreated samples. (B) Anti-inflammatory effect of peptides on LPS-stimulated macrophages. J774A.1 cells were stimulated with LPS (150 ng/mL final concentration) in the presence of different concentrations of peptides. Cells stimulated with LPS alone and untreated cells served as controls. Cells were incubated for six hours at 37 °C before the supernatant from each treatment group was collected. Detection of tumor necrosis factor-α (TNF-α) and interleukin-6 (IL-6) in supernatants was determined using ELISA. Cytokine levels are expressed as percent change relative to the LPS-stimulated control. Statistical analysis was calculated using one-way ANOVA, with post hoc Tukey’s multiple comparisons test. P < 0.05 was considered significant. One asterisk (*) indicates significant difference with the negative control.
To determine the peptides’ ability to bind to LPS, a Limulus amoebocyte lysate (LAL) kit (Genscript, USA Inc.) was utilized, as described in previous reports. The peptides were dissolved in pyrogen-free water and serially diluted in the same solvent. The peptides were then incubated with one endotoxin unit (EU) of LPS at 37 °C for 30 minutes in order to permit the peptides to bind LPS. The reaction mixture (50 μL) was added to 50 μL of LAL reagent, and further incubated for 10 minutes. Next, 100 μL of LAL chromogenic substrate was added. The mixture was incubated at 37 °C for six minutes. The optical density (at 545 nm) was determined using a microplate reader. Colistin was used as a positive control. The binding of peptides with LPS was expressed as the percent change relative to the untreated control.

[3] = system: P. aeruginosa and A. baumannii isolates
Text: (§1) The broth microdilution technique was utilized to assess the MIC of designed peptides according to the guidelines of the Clinical and Laboratory Standards Institute (CLSI)[37].

[4] = system: colistin-resistant P. aeruginosa isolated from cystic fibrosis patients
Text: as §1

[5] = system: A. baumannii; type: cell-based

## Colistin [reference compound]
[1]; strain ATCC 9027
  MIC: 0.25 µM
[1]; strain ATCC 9721
  MIC: 0.5 µM
[1]; strain ATCC 10145
  MIC: 0.5 µM
[1]; strain ATCC 15442
  MIC: 0.25 µM
[1]; strain ATCC 25619
  MIC: 0.25 µM
[1]; strain ATCC 27853
  MIC: 0.25 µM
[1]; strain ATCC 35032
  MIC: 0.5 µM
[1]; strain ATCC BAA-1744
  MIC: 0.5 µM
[1]; strain PAO1
  MIC: 0.5 µM
[2]; 5 µM peptide
  inhibition of LPS-induced activation of the LAL enzyme: 51.2%
[2]; 10 µM peptide
  inhibition of LPS-induced activation of the LAL enzyme: 83.0%
[2]; 15 µM peptide
  inhibition of LPS-induced activation of the LAL enzyme: Complete inhibition
[2]; 20 µM peptide
  inhibition of LPS-induced activation of the LAL enzyme: Complete inhibition
[3]; MIC that inhibited growth of 50% of all isolates (Table 2)
  MIC50: 0.25 µM
[3]; MIC that inhibited growth of 90% of all isolates (Table 2)
  MIC90: 0.5 µM
[4]; strain 1125
  MIC: 32 µM
[4]; strain 1131
  MIC: 64 µM
[4]; strain 1133
  MIC: 32 µM
[4]; strain 1603
  MIC: 64 µM
[5]; strain ATCC 19606
  MIC: 0.125 µM
[5]; strain ATCC BAA-747
  MIC: 0.25 µM
[5]; strain ATCC BAA-1605
  MIC: 0.25 µM
[5]; strain NR-9667
  MIC: 0.0625 µM
[5]; strain NR-13374
  MIC: 0.125 µM
[5]; strain NR-13375
  MIC: 0.125 µM
[5]; strain NR-13382
  MIC: 0.5 µM
[5]; strain NR-17777
  MIC: 0.5 µM
[5]; strain NR-17778
  MIC: 0.0625 µM
[5]; strain NR-17780
  MIC: 0.25 µM
[5]; strain NR-17783
  MIC: 0.0625 µM
[5]; strain NR-17784
  MIC: 0.0625 µM
[5]; strain NR-17785
  MIC: 0.25 µM
[5]; strain NR-17786
  MIC: 0.0625 µM
[5]; strain NR-19298
  MIC: 0.25 µM
[5]; strain NR-19299
  MIC: 0.25 µM

Reference: publication PMC5537347, “A short D-enantiomeric antimicrobial peptide with potent immunomodulatory and antibiofilm activity against multidrug-resistant Pseudomonas aeruginosa and Acinetobacter baumannii” (Scientific Reports, 2017)
